Measured values reported in article PMC10384666, “Impact of Peptide Structure on Colonic Stability and Tissue Permeability” (Pharmaceutics, 2023).
Bridge positions count the residues as written; N and C are the ends. Square brackets hold non-standard residues; d marks the D form. Ends that are not written are not given here. Peptide text beside a SMILES is read from it.

Assays:
[1] = Peptide stability in a human colon model (pooled human faecal slurry, anaerobic); assay type: in vitro ADME; conditions: for Degradation rate constant / half-life at 1 mg/mL: fitted to exponential (one-phase, first-order) decay model; for Degradation rate constant: plateau 0.0; for remaining at 1.5 h, 1 mg/mL: after 1.5 h incubation, n = 3, read-out: peptide remaining intact (of starting concentration); for time interval in which entirely depleted: footnote to Table S1; for higher stability than linear P1: at 30 min, relative to P1 (totally degraded)
Description: The human colon model (HCM) was prepared to mimic in vivo colonic conditions and maintain microbial viability. Fresh human faecal material was provided voluntarily from 3 healthy individuals who had not taken antibiotics for at least 6 months. Approval for the collection and use of human faecal material was obtained from the National Research Ethics Service (NRES) of Royal Free Hospital Biobank (reference number NC2017.010). Faecal material from the 3 donors was pooled and then diluted within an anaerobic workstation (37 °C, 70% relative humidity) (Elektrotek, Yorkshire, United Kingdom), using an in-house basal growth media to prepare 12.5% or 25% faecal slurries. These slurry concentrations have been used to measure the colonic stability of several drugs and exceed the minimum concentrations required for biorelevant bacterial activity. The samples were homogenised before being sieved (SefarNitex™, pore size 350 µm) to remove fibrous material. Faecal slurry was frozen at −80 °C in aliquots and thawed immediately prior to use.
Peptide stability studies were conducted within the anaerobic workstation (Elektrotek, Yorkshire, United Kingdom). An amount of 2 mg/mL stock solutions of oxytocin and oxytocin variants were prepared and added to HCM at a 1:1 ratio, leading to 1 mg/mL incubation concentrations (n = 3 for each peptide). Incubation vials were placed on a 100 RPM shaker and 50 µL samples were withdrawn at specific time intervals (0, 0.5, 1 and 1.5 h) and immediately quenched with 50 µL methanol (1:1) to terminate protease activity. Samples were centrifuged at 16,900 RCF for 10 min at 4 °C, and the supernatant was collected for peptide quantification with a 1260 II Series™ HPLC system (Agilent Technologies, Cheadle, UK). A Luna C18 (5 µm, 100 Å, 150 × 4.6 mm) HPLC column was used with a 1.0 mL/min flow rate, an injection volume of 20 µL and mobile phases of 0.1% TFA in water and ACN, with varying gradients for optimised individual peptide quantification to prevent overlap with endogenous components of the HCM.
All results are presented as mean ± standard deviation and subjected to statistical analysis using GraphPad Prism 9 (GraphPad by Dotmatics). Two-way ANOVA with Dunnett’s multiple comparison test was performed to determine statistical significance between peptides and native oxytocin at multiple timepoints. Results were deemed significant where p < 0.05. The physicochemical properties of peptides were estimated using RDKit (version 2021.09.4) in Python (version 3.6.15) via Jupyter Notebook (version 6.3.0) using the peptides’ isomeric SMILES. The Tanimoto similarities of the peptide variants’ molecular structure to native oxytocin was calculated using chemical fingerprints (ECFP6, radius 3, 2048 bits) RDKit (version 2022.9.1) with Python (version 3.7.0) via Google Colaboratory. Chemical similarity maps were generated using RDKit based on bit-vector fingerprints (chirality = true, radius 3, 2048 bits) and Tanimoto similarity. The degradation profiles of peptides were fitted to an exponential decay model in GraphPad Prism 9. A nonlinear regression (one-phase decay, also known as first-order decay) curve was fitted to the peptide stability data with a plateau constraint of 0.0.

[2] = Peptide tissue permeability, Ussing chamber with rat colonic tissue; assay type: in vitro ADME; conditions: for Papp at 2 h, 1 mg/mL: pH 7.4, 2 h (120 min); for original dose detected in the basolateral chamber / original dose detected within the colonic tissue: at 2 h
Description: Peptide permeability studies were conducted using the NaviCyte Vertical Ussing chamber model (Harvard Apparatus, Cambridge, UK). Amounts of 250–300 g adult male Wistar rats (n = 3) were selected and sacrificed, in accordance with the accepted ethical standards of the National Research Ethics Service (ethical approval number 21/WA/0388). The rat colonic tissues were excised, processed to remove luminal contents and gently washed with Krebs-Ringer Bicarbonate (KBR) buffer (pH 7.4). Each colonic tissue was mounted on an Ussing chamber with the mucosal side facing the apical chamber. The tissue was allowed to acclimatise in the KBR buffer for 20 min. Transepithelial electrical resistance (TEER) across the tissue was measured using an EVOM^TM voltameter (World Precision Instruments, Inc., Hertfordshire, UK) and Ag/AgCl electrodes (Harvard Apparatus, Cambridge, UK). TEER values were measured to ensure the tissue integrity was maintained (≥200 Ω cm^2). The native oxytocin and oxytocin variants at 1 mg/mL concentrations were added to the apical chamber to measure peptide permeation into the tissue and into the basal chamber. Each peptide was tested twice using tissue from the three rats to account for any inter-animal variability. The Ussing chambers were continuously pumped with a supply of carbogen (95% oxygen/5% carbon dioxide) and maintained at 37 °C. An amount of 100 µL samples were taken from the basal side at 1 and 2 h timepoints. At 2 h, the tissues were collected, quenched with 6.25 µL methanol/mg tissue, sectioned with scissors, sonicated for 5 min and centrifuged for 10 min (4 °C, 16,900 RCF), with the supernatant used for peptide quantification. The amount of peptide within the basal chamber and tissue samples was measured with the HPLC method described in Section 3.3 and presented as the percentage of the peptide dose originally applied to the apical chamber. The apparent permeability (Papp) of peptides was calculated using Equation (1):(1) […]
Equation (1): Apparent permeability (Papp) of peptides across the rat colonic tissue was calculated using the peptide flux (µg/s, dQ/dt), the surface area of the tissue (cm^2) and the initial peptide concentration in the apical chamber (C0).

[3] = human, human colon model (HCM), pooled human faecal slurry
[4] = human, human colon model (pooled human faecal slurry, anaerobic), HCM
[5] = male, Wistar, 1 mg/mL apical, read-out: apparent permeability (Papp)

Row | Compound | Degradation rate constant ([1]; HCM) | half-life at 1 mg/mL [1, 3] | remaining at 1.5 h, 1 mg/mL [1, 4] | also measured
1 | CC[C@@H](C)[C@@H](NC(=O)[C@@H](Cc1ccc(O)cc1)NC(=O)[C@H](C)N)C(=O)N[C@@H](CCC(N)=O)C(=O)N[C@@H](CC(N)=O)C(=O)N[C@@H](C)C(=O)N1CCC[C@H]1C(=O)N[C@H](CC(C)C)C(=O)NCC(N)=O [Peptide P11] (H-A[dY][dI]QNAP[dL]G-NH2) | 0.289 h⁻¹ | 144 min | 64.2 ± 1.18% | Papp at 2 h, 1 mg/mL [2, 5]: 35.2 ×10⁻⁶ cm/s
2 | CC[C@H](C)[C@H](NC(=O)[C@H](Cc1ccc(O)cc1)NC(=O)[C@H](C)N)C(=O)N[C@@H](CCC(N)=O)C(=O)N[C@@H](CC(N)=O)C(=O)N[C@@H](C)C(=O)N1CCC[C@H]1C(=O)N[C@H](CC(C)C)C(=O)NCC(N)=O [Peptide P9] (H-AYIQNAP[dL]G-NH2) | – | – | – | time to total degradation ([1]; HCM): less than 30 min; time interval in which entirely depleted ([1]; HCM): 0.0 to 0.5 h
3 | CC[C@@H](C)[C@H]1NC(=O)[C@@H](Cc2ccc(O)cc2)NC(=O)[C@@H](N)CSSC[C@@H](C(=O)N2CCC[C@H]2C(=O)N[C@@H](CC(C)C)C(=O)NCC(N)=O)NC(=O)[C@H](CC(N)=O)NC(=O)[C@H](CCC(N)=O)NC1=O [Peptide P8] | 2.33 h⁻¹ | 17.8 min | 3.7 ± 0.43% | –
4 | CC[C@H](C)[C@@H]1NC(=O)[C@H](Cc2ccc(O)cc2)NC(=O)[C@@H](N)CSSC[C@@H](C(=O)N2CCC[C@H]2C(=O)N[C@H](CC(C)C)C(=O)NCC(N)=O)NC(=O)[C@H](CC(N)=O)NC(=O)[C@H](CCC(N)=O)NC1=O [Peptide P7] | 1.05 h⁻¹ | 39.6 min | 22.3 ± 0.85% | –
5 | CC[C@@H](C)[C@H]1NC(=O)[C@@H](Cc2ccc(O)cc2)NC(=O)[C@@H](N)CSSC[C@@H](C(=O)N2CCC[C@H]2C(=O)N[C@H](CC(C)C)C(=O)NCC(N)=O)NC(=O)[C@H](CC(N)=O)NC(=O)[C@H](CCC(N)=O)NC1=O [Peptide P4] | 0.108 h⁻¹ | 385 min | 85.1 ± 0.21% | higher stability than linear P1 ([1]; HCM): 90.3 ± 1.57%; original dose detected in the basolateral chamber [2]: 6.85 ± 2.05%; original dose detected within the colonic tissue [2]: 3.0 ± 0.85%; Papp at 1 h, 1 mg/mL ([2]; male, Wistar, pH 7.4, 1 h (60 min), 1 mg/mL apical, read-out: apparent permeability (Papp)): 57 ×10⁻⁶ cm/s; Papp at 2 h, 1 mg/mL [2, 5]: 206 ×10⁻⁶ cm/s
6 | P1: Linear form of oxytocin, the two cysteines replaced by alanines (AYIQNAPLG-NH2; ends and bridges not checked; UniProt P01178 20-28, looked up, variant C1A C6A) [Peptide P1] | – | – | – | time interval in which entirely depleted ([1]; HCM): 0.0 to 0.5 h
7 | CC[C@@H](C)[C@@H](NC(=O)[C@@H](Cc1ccc(O)cc1)NC(=O)[C@H](C)N)C(=O)N[C@@H](CCC(N)=O)C(=O)N[C@@H](CC(N)=O)C(=O)N[C@@H](C)C(=O)N1CCC[C@H]1C(=O)N[C@@H](CC(C)C)C(=O)NCC(N)=O [Peptide P10] (H-A[dY][dI]QNAPLG-NH2) | 2.05 h⁻¹ | 20.3 min | – | –
8 | CC[C@H](C)[C@@H]1NC(=O)[C@H](Cc2ccc(O)cc2)NC(=O)[C@@H](NC(C)=O)CSSC[C@@H](C(=O)N2CCC[C@H]2C(=O)N[C@@H](CC(C)C)C(=O)NCC(N)=O)NC(=O)[C@H](CC(N)=O)NC(=O)[C@H](CCC(N)=O)NC1=O [Peptide P2] | 3.17 h⁻¹ | 13.1 min | – | metabolised at 1.5 h, 1 mg/mL ([1]; human, human colon model (pooled human faecal slurry, anaerobic), HCM, after 1.5 h, read-out: peptide degraded by the HCM): 97.2 ± 0.84%
9 | CC[C@H](C)[C@@H]1NC(=O)[C@H](Cc2ccc(O)cc2)NC(=O)[C@@H](N)CSSC[C@@H](C(=O)N2CCC[C@H]2C(=O)N[C@@H](CC(C)C)C(=O)NCC(N)=O)NC(=O)[C@H](CC(N)=O)NC(=O)[C@H](CCC(N)=O)NC1=O [Oxytocin, oxytocin, reference compound] | 1.62 h⁻¹ | – | 6 ± 1.36% | higher stability than linear P1 ([1]; HCM): 47.3 ± 1.98%; half-life at 1 mg/mL ([1]; human, HCM): 25.7 min; original dose detected in the basolateral chamber [2]: not detected; original dose detected within the colonic tissue [2]: not detected
10 | CC[C@@H](C)[C@H]1NC(=O)[C@@H](Cc2ccc(O)cc2)NC(=O)[C@H](C)NC(=O)CSC[C@@H](C(=O)N2CCC[C@H]2C(=O)N[C@H](CC(C)C)C(=O)NCC(N)=O)NC(=O)[C@H](CC(N)=O)NC(=O)[C@H](CCC(N)=O)NC1=O [Peptide P5] ({CH2CO}-A[dY][dI]QNCP[dL]G-NH2; thioether N-6) | 0.0322 h⁻¹ | 1290 min | 95.2 ± 3.14% | –
11 | CC[C@H](C)[C@@H]1NC(=O)[C@H](Cc2ccc(O)cc2)NC(=O)[C@H](C)NC(=O)CSC[C@@H](C(=O)N2CCC[C@H]2C(=O)N[C@@H](CC(C)C)C(=O)NCC(N)=O)NC(=O)[C@H](CC(N)=O)NC(=O)[C@H](CCC(N)=O)NC1=O [Peptide P3] ({CH2CO}-AYIQNCPLG-NH2; thioether N-6) | 0.688 h⁻¹ | 60.4 min | 34.4 ± 0.61% | –
12 | CC[C@H](C)[C@@H]1NC(=O)[C@H](Cc2ccc(O)cc2)NC(=O)[C@@H](N)CSCc2cccc(c2)CSC[C@@H](C(=O)N2CCC[C@H]2C(=O)N[C@@H](CC(C)C)C(=O)NCC(N)=O)NC(=O)[C@H](CC(N)=O)NC(=O)[C@H](CCC(N)=O)NC1=O [Peptide P6] | 5.39 h⁻¹ | 7.71 min | – | time to 100% degradation ([1]; HCM): less than 1 h
